What was measured:
Format in all cases: cell-based, human
[1] = test system: K562-TAX; assay: MTT cytotoxicity assay, K562-TAX; details: 72 h
From the text: (§1) One of the parameters used as the basis for colorimetric assays is the metabolic activity of viable cells. For example, a microtiter assay which uses the tetrazolium salt MTT is now widely used to quantitate cell proliferation and cytotoxicity (Hájduch et al., Cytotechnology, 19, 1996, 243-245). For instance, this assay is used in drug screening programs and in chemosensitivity testing. Because tetrazolium salts are cleaved only by metabolically active cells, these assays exclusively detect viable cells. In the case of the MTT assay, yellow soluble tetrazolium salt is reduced to a coloured water-insoluble formazan salt. After it is solubilized, the formazan formed can easily and rapidly be quantified in a conventional ELISA plate reader at 570 nm (maximum absorbancy). The quantity of reduced formazan corresponds to the number of vital cells in the culture.
(§2) All cells were purchased from the […] (ATCC), unless otherwise indicated: the CEM line are highly chemosensitive T-lymphoblastic leukemia cells, K562 cells were derived from patient with […] with bcr-abl translocation, A549 line is lung adenocarcinoma, HCT116 is colorectal tumor cell line and its p53 gene knock-down counterpart (HCT116p53−) is a model of human cancers with p53 mutation frequently associated with poor prognosis. The daunorubicin resistant subline of CEM cells (CEM-DNR bulk) and paclitaxel resistant subline K562-tax were selected in our laboratory by the cultivation of maternal cell lines in increasing concentrations of daunorubicine or paclitaxel, respectively (Noskova et al., Neoplasma 49, 2002, 418). The CEM-DNR bulk cells overexpress MRP-1 protein, while K562-tax cells overexpress P-glycoprotein, both proteins belong to family of ABC transporters and are involved in primary and/or acquired multidrug resistance phenomenon (Noskova et al., Neoplasma 49, 2002, 418). The cells were maintained in Nunc/Corning 80 cm^2 plastic tissue culture flasks and cultured in cell culture medium (DMEM/RPMI 1640 with 5 g/l glucose, 2 mM glutamine, 100 U/ml penicillin, 100 μg/ml streptomycin, 10% fetal calf serum, and NaHCO3).
(§3) This assay was performed according to Hajduch et al., Anti-Cancer Drugs 10, 1997, 1007. Cell suspensions were prepared and diluted according to the particular cell type and the expected target cell density (2 500-30 000 cells/well based on cell growth characteristics). Cells were added by pipette (80 μl) into 96-well microtiter plates. Inoculates were allowed a pre-incubation period of 24 h at 37° C. and 5% CO2 for stabilization. Four-fold dilutions, in 20-μl aliquots, of the intended test concentration were added to the microtiter plate wells at time zero. All test compound concentrations were examined in duplicate. Incubation of the cells with the test compounds lasted for 72 h at 37° C., in a 5% CO2 atmosphere at 100% humidity. At the end of the incubation period, the cells were assayed using MTT. Aliquots (10 μl) of the MTT stock solution were pipetted into each well and incubated for a further 1-4 h. After this incubation period the formazan produced was dissolved by the addition of 100 μl/well of 10% aq SDS (pH=5.5), followed by a further incubation at 37° C. overnight. The optical density (OD) was measured at 540 nm with a Labsystem iEMS Reader MF. Tumor cell survival (TCS) was calculated using the following equation: TCS=(ODdrug-exposed well/mean ODcontrol wells)×100%. The TCS50 value, the drug concentration lethal to 50% of the tumor cells, was calculated from appropriate dose-response curves.

[2] = test system: HCT116; assay: MTT cytotoxicity assay, HCT116; details: 72 h
From the text: as §1, §2, §3

[3] = test system: HCT116p53−/−; assay: MTT cytotoxicity assay, HCT116p53−/−; details: 72 h
From the text: as §1, §2, §3

[4] = test system: HCT116 cells; assay: Flow cytometric measurement of intracellular pH (pHi), HCT116 expressing CAIX; details: for pHi: HCT116, carboranes at 1 μM, 24 hour incubation, control 7.516; for intracellular acidification in HCT116 cells: carboranes 1 μM versus acetazolamide 50 μM
Method: The effect of carborane CAIX (carbonic anhydrase IX) inhibitors was evaluated on colorectal cancer cell line HCT116 expressing CAIX enzyme versus CA IX negative cell line of T-lymphoblastic leukemia CCRF-CEM. Acetazolamide, a known inhibitor of CAIX, was used as a standard. HCT116/CCRF-CEM cells were cultivated in McCoy/RPMI Media supplemented with 10% FCS and antibiotics and seeded at high density ([…] per 3.5 cm dish) to induce pericellular hypoxia and thus stimulate CA IX expression. Measurement of pHi was assessed as described in Cianchi et al. [Cianchi F., et al. Selective inhibition of carbonic anhydrase IX decreases cell proliferation and induces […] apoptosis in human cancer cells. The Journal of Pharmacology and Experimental Therapeutics, 2010, Vol. 334, No. 3, 710-719].
[…] The pHi was measured by flow cytometry in cell cultures pretreated with 10 μM of pH sensitive probe carboxyseminaphtorhoda-fluor-1-acetoxymethyl ester (SNARF, Invitrogen, CA) for 15 min at 37° C. After incubation, the cells were washed twice with PBS. Because the addition of bicarbonate can affect pHi, all incubation and cell washes were performed in bicarbonate-free buffer. SNARF was excited at 488 nm and emitted at 580 and 640 nm. The ratio of the emission wavelengths at 640/580 nm was then used to estimate the pHi from a calibration curve. The calibration curve was prepared by nigericin clamp technique. In this method, after the SNARF labeling of untreated cells, aliquots of cell suspensions were re-suspended in a high potassium containing buffer at specific pH (usually 6.8, 7.0, 7.2, 7.4, 7.6 and 7.8). The cell suspensions were then clamped at a specific pH value by the addition of 0.03 μM nigericin (Sigma-Aldrich). Nigericin is a ionophore that allows the exchange of H for K ions, thus abolishing the pH gradient across the cell membrane. When the internal and external K concentrations are approximately equal, the pH rapidly equilibrates to the pH of the bathing solution. A total of 20,000 events were acquired on a FACS ARIA II flow cytometer (Becton. Dickinson) for further analysis.
The fluorescent ratio values (640/580 nm) calculated for each pH point were further used to construct calibration curve in Prism software (GraphPad Software, Inc., San Diego, Calif.), from which the pHi values in treated cells were determined (Table 3).

Substance | IC50 [1] | IC50 [2] | IC50 [3] | pHi [4] | intracellular acidification in HCT116 cells [4]
1-methylenesulfamide-1,7-dicarba-closo-dodecaborane [CB-19] | 86.7 ± 12.7 µM | 89.3 ± 3.3 µM | 78.3 ± 6.5 µM | 7.542 | 
1-methylenesulfamide-3,3′-commo-bis(1,2-dicarba-3-cobalta(III)-closo-dodecabor)ate (1-) [CB-5] | 66.4 ± 8 µM | 75.3 ± 4.1 µM | 64.7 ± 9.1 µM | 7.483 | 
1-methylenesulfamide-9-phenyl-1,2-dicarba-closo-dodecaborane and 1-methylene-sulfamide-12-phenyl-1,2-dicarba-closo-dodecaborane [CB-8] | 79.6 ± 10.9 µM | 97.4 ± 3.4 µM | 86.6 ± 7.5 µM | 7.112 | better than acetazolamide
1-methylensulfamide-1,2-dicarba-closo-dodekaborane [CB-1] | 81.5 ± 11 µM | 63.9 ± 5.7 µM | 62 ± 2.7 µM | 7.561 | 
1-sulfamide-closo-1-carbadodecaborate (1-) [CB-3] | ≥ 100 µM | ≥ 100 µM | ≥ 100 µM | 7.479 | 
7-methylensulfamide-8-phenyl-(7,8-nido-dikarbaundekabor)ate (1-) [CB-6] | 56.9 ± 15.1 µM | 78.4 ± 17 µM | 24.2 ± 3.2 µM | 7.192 | better than acetazolamide
7-methylensulfamide-(7,8-nido-dicarbaundekaborate) (1-) [CB-2] | 99.9 ± 0.2 µM | ≥ 100 µM |  | 7.572 | 
8-butyloxysulfamide-3,3′-commo-bis(decahydro-1,2-dicarba-3-cobalta(III)-closo-dodekabor)ate (1-) [CB-16] | 95.8 ± 4.4 µM | 84.8 ± 3 µM | 78.4 ± 3.9 µM | 7.563 | 
8-diethyleneoxysulfamide-3,3′-commo-bis(decahydro-1,2-dicarba-3-cobalta(III)-closo-dodekabor)ate (1-) [CB-17] | ≥ 100 µM | ≥ 100 µM | ≥ 100 µM | 7.571 | 
8-ethylaminomethylsulfamide-8″-methoxy-3,3′-commo-bis(decahydro-1,2-dicarba-3-cobalta(III)-closo-dodecabor)ate (1-) [CB-15] | 16.6 ± 1.2 µM | 16.6 ± 0.2 µM | 17.6 ± 0.9 µM | 7.343 | better than acetazolamide
8-methylensulfamide-8″-methoxy-3,3′-commo-bis(1,2-dicarba-3-cobalta(III)-closo-dodecabor)ate (1-) [CB-4] | 55.2 ± 4.7 µM | 69.2 ± 3 µM | 71.9 ± 3.4 µM | 7.538 | 
8-propylenesulfamide-7-phenyl-(7,8-nido-dicarbaundecabor)ate (1-) [CB-13] | 64.2 ± 4.5 µM | 55.5 ± 1.8 µM | 61.3 ± 4.9 µM | 7.51 | 
9-sulfamide-9′-amine-2,2′-commo-bis(1,7,9-trikarba-2-ferra(II)-kloso-dodekabor)ane [CB-12] | ≥ 100 µM | ≥ 100 µM | ≥ 100 µM | 7.704 | 
10-sulfamide-9′-amine-2,2′-commo-(1,7,10-tricarba-1′,7′,9′-tricarba-2-ferra (II)-closo-dodekabor)ane [CB-10] | 73.6 ± 11.1 µM | 96.4 ± 4.5 µM |  | 7.688 | 
Di(methylenesulfamide)-1,7-dicarba-closo-dodecaborane [CB-20] | 96.3 ± 5.8 µM | 99.6 ± 1.1 µM | ≥ 100 µM | 7.561 | 
